The source of these data is patent publication US12144792B2, “Therapeutic agents for neurodegenerative diseases” (priority 2016, dated 2024).

Experiment [1] relates to patient with corticobasal syndrome. The experiment in a line: Case study, clinical examination. Type of experiment: in vivo, human. On the procedure: Gait analysis was performed before treatment commenced. After 20 days of acetyl-leucine treatment, the patient was re-examined. […] After 8 weeks of acetyl-leucine treatment, medication was stopped and the patient was re-examined 6 days later.

The subject of experiment [2] is patient with spinocerebellar ataxia 28 (SCA 28). Description: Case study, clinical evaluation. Format: in vivo, human. The note with it: Ex. 14, SCA 28; 5 g per day; after about one month. On the procedure:
A gait analysis was performed before treatment commenced. After about one month of treatment, medication was stopped and the patient was evaluated. […] The patient reported that they no longer walked like a robot and could climb the stairs without using the banisters.

Experiment [3] deals with Hexb^−/− mouse (Sandhoff disease model). Description: Lifespan of Sandhoff mouse. Particulars: 0.1 g/kg from 3 weeks of age, p<0.05 vs untreated. Format: in vivo. As for the experimental part:
This study made use of a mouse model of Sandhoff disease, the Hexb^−/− mouse, as described in Jeyakumar et al. (Jeyakumar, M. et al. (1999) Proc. Natl. Acad. Sci. USA 96: 6388-6393).
In FIG. 7A, acetyl-leucine-treated mice were treated with 0.1 g/kg acetyl-leucine from 3 weeks of age. The asterisks (*) indicates a p-value of <0.05 vs untreated Sandhoff mice. Data is average of n=6 mice per group. Without treatment, the median survival time of Sandhoff mice was 112 days. Treatment with acetyl-leucine (0.1 g/kg body weight since 3 weeks of age) increased the median lifespan to 120 days.

Experiment [4] relates to patients with Tay-Sachs disease. Description: Case studies, patient evaluation (SARA, SCAFI, MoCA, mRDS, EQ-5D-5L). Type of experiment: in vivo, human. From the text:
For example, to evaluate overall neurological status, mDRS, a four-domain scale (ambulation, manipulation, language and swallowing), may be applied. Cerebellar function may be evaluated using SARA, an eight-item clinical rating scale (gait, stance, sitting, speech, fine motor function and taxis; range 0-40, where 0 is the best neurological status and 40 the worst), and SCAFI, comprising the 8-m-Walking-Time (8MW; performed by having patients walking twice as quickly as possible from one line to another excluding turning), 9-Hole-Peg-Test (9HPT) and the number of “PATA” repetitions over 10 s. Subjective impairment and quality of life may be evaluated using the EQ-5D-5L questionnaire and VAS. To assess ocular motor function, 3-dimensional videooculography (EyeSeeCam) may be used to measure the peak velocity of saccades, gain of smooth pursuit, peak slow phase velocity of gaze-evoked nystagmus (gaze-holding function), peak slow phase velocity of optokinetic nystagmus, and gain of horizontal vestibulo-ocular reflex. To evaluate the cognitive state, WAIS-R or WISC-W, and MoCA, assessing different cognitive domains, including attention and concentration, executive functions, memory, language, visuoconstructional skills, conceptual thinking, calculations, and orientation with a maximum of 30 points and a cut-off score of 26, may be used. The skilled person will know how to perform these and other such tests.
Before treatment was commenced, examination of the patient indicated a Scale for Assessment and Rating of Ataxia (SARA) score of 15.5/40. In addition, results from the patient's Spinocerebellar Ataxia Functional Index (SCAFI) analysis were: • Mean 8-meters Walking Test (8MW): 21.6 s • MW 9-Hole Pegboard Test Dominant (9HPTD) (right): 48.3 s • MW 9-Hole Pegboard Test Non-Dominant (9HPTND): 44.9 s • MW PATA Word Test: 20 • Montreal Cognitive Assessment (MoCA): 18/30
The day following this examination, the patient was started on therapy with acetyl-leucine, at a dose of 3 g per day for the first week, followed by a dose of 5 g per day for the second week onwards.
The day of the examination, the patient was started on therapy with acetyl-leucine at a dose of 3 g per day for the first week, followed by a dose of 5 g per day for the second week onwards.
The patient was started on therapy with acetyl-leucine at a dose of 1.5 g per day for the first week, followed by a dose of 3 g per day for the second week onwards.

Another experiment deals with Npc1^−/− mice. Description: Motor function analysis (Open Field Activity Monitor). Type of experiment: in vivo, mouse. Particulars: 0.1 g/kg from weaning, nine weeks of age, vs untreated littermates. On the procedure: Separate groups of Npc1^−/− and Npc1^+/+ mice were left untreated, as controls. Motor function analysis was performed on mice at eight and nine weeks of age using an Open Field Activity Monitor according to manufacturer's instructions (Linton Instruments, Amlogger Software). Each mouse was placed in a plastic cage with bedding and analysed for five minutes. Rears were counted manually. Motor function parameters measured were: • 1. Centre Rearing: mice rearing on hind legs unsupported; • 2. Rearing: mice rearing on hind legs with and without the support of cage walls; • 3. Activity: regular movement of the animal including walks; • 4. Front to Back (FR) count: movement of the animal from front to back of the cage; • 5. Active Time: duration (s/min) of activeness regardless of movement; • 6. Mobile Time: duration (s/min) of mobility; • 7. Rearing Time: duration of any rearing.

With `CC(=O)NC(CC(C)C)C(=O)O` (racemic) [acetyl-DL-leucine], the dizziness and falls entry in experiment [1] (Ex. 10, corticobasal syndrome, 3 then 5 g per day, after 20 days) was “improvement of dizziness symptoms and significant reduction in the frequency of falls”. Further, in experiment [1] (Ex. 10, medication stopped after 8 weeks), the symptoms after suspension result is “increase of dizziness symptoms two days after suspension of treatment”. For the same compound, the symptomatology result in experiment [2] is “reduced dizziness (almost vanished), and a more stable gait”. For the same compound, the lifespan entry in experiment [3] is “statistically significant increase in the lifespan”. For the same compound, the symptoms on re-examination result is “stable condition with slightly improved cognitive function but had deterioration of stance, gait and fine motor function” in experiment [4] (Ex. 5 Patient 1, Tay-Sachs, 3 then 5 g per day, after four months); “improved fine motor skills and reduced hand tremor” in experiment [4] (Ex. 5 Patient 1, Tay-Sachs, 3 then 5 g per day, after one month); “increased enunciation, improved postural stability, and enhanced cognitive function” in experiment [4] (Ex. 5 Patient 2, Tay-Sachs, 3 then 5 g per day, after one month); “improved postural stability, gait and stance, and could speak single words” in experiment [4] (Ex. 5 Patient 3, Tay-Sachs, 1.5 then 3 g per day, after one month). The motor function properties entry in the experiment with Npc1^−/− mice was “significantly improved motor function”.
